Values joined by “and” are separate entries in the source; they are usually repeats but may differ in a detail not shown here. Identical values can stand only once. Results filed as inconclusive are left out.
Test system: MX-1 breast xenograft, nude mice, tumor weight T/C
Assay: NCI In Vivo Anticancer Drug Screen. Data for tumor model Human Mammary Carcinoma MX-1 Xenograft (intrarenal inoculation) in NU/NU Swiss (nude) mice
Details: endpoint: mean tumor weight change, higher = larger tumour
Method in brief: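 Tumor-bearing mice were treated with test compound alongside a vehicle-treated control group. Survival or tumor size was measured, and activity is expressed as the treated-group value divided by the control-group value.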

[1] = dose: 150.0 mg/kg/injection, schedule: Q04DX003 (sc), vehicle: saline with Tween-80
[2] = dose: 1200.0 mg/kg/injection, schedule: Q04DX003 (sc), vehicle: saline with Tween-80
[3] = dose: 100.0 mg/kg/injection, schedule: Q01DX010 (sc), vehicle: saline with Tween-80
[4] = dose: 200.0 mg/kg/injection, schedule: Q01DX010 (sc), vehicle: saline with Tween-80
[5] = dose: 6.25 mg/kg/injection, schedule: Q01DX010 (sc), vehicle: saline
[6] = dose: 50.0 mg/kg/injection, schedule: Q01DX010 (sc), vehicle: saline
[7] = dose: 300.0 mg/kg/injection, schedule: Q04DX003 (sc), vehicle: saline with Tween-80

Structure (SMILES): C=C[Si]12OCCN(CCO1)CCO2
- T/C (dose: 300.0 mg/kg/injection, schedule: Q04DX003 (sc), vehicle: Klucel (hydroxypropylcellulose) (HPC)): 87 % of control
- T/C (dose: 600.0 mg/kg/injection, schedule: Q04DX003 (sc), vehicle: Klucel (hydroxypropylcellulose) (HPC)): 79 % of control
- T/C (dose: 1200.0 mg/kg/injection, schedule: Q04DX003 (sc), vehicle: Klucel (hydroxypropylcellulose) (HPC)): 106 % of control
- T/C (dose: 2400.0 mg/kg/injection, schedule: Q04DX003 (sc), vehicle: Klucel (hydroxypropylcellulose) (HPC)): 89 % of control

Structure (SMILES): CC1(C)OC2C(COC(=O)c3ccc([N+](=O)[O-])cc3)OC(NC(=O)N(CCCl)N=O)C2O1 (stereo not given)
- T/C [1]: 69 % of control
- T/C [2]: 9 % of control

Structure (SMILES): CSc1ccc2c(c1)C(N1CCN(C)CC1)Cc1ccccc1S2 (stereo not given)
- T/C (dose: 12.5 mg/kg/injection, schedule: Q04DX003 (sc), vehicle: other): 50 % of control
- T/C (dose: 25.0 mg/kg/injection, schedule: Q04DX003 (sc), vehicle: other): 23 % of control
- T/C (dose: 100.0 mg/kg/injection, schedule: Q04DX003 (sc), vehicle: other): 42 % of control

Structure (SMILES): C1OC1CO[C@@H]1CO[C@H]2[C@@H]1OC[C@H]2OCC1CO1 (stereo not given in full)
- T/C (dose: 50.0 mg/kg/injection, schedule: Q01DX010 (sc), vehicle: saline with Tween-80): 45 % of control
- T/C [3]: 112 % of control
- T/C [4]: 24 % of control

Structure (SMILES): CC1OC1C(=O)C1(O)C(C)C(O)C23OC2(C(O)c2c(O)cccc2C3=O)C1O (stereo not given)
- T/C (dose: 12.0 mg/kg/injection, schedule: Q04DX003 (sc), vehicle: Klucel (hydroxypropylcellulose) (HPC)): 102 % of control
- T/C (dose: 24.0 mg/kg/injection, schedule: Q04DX003 (sc), vehicle: Klucel (hydroxypropylcellulose) (HPC)): 83 % of control
- T/C (dose: 48.0 mg/kg/injection, schedule: Q04DX003 (sc), vehicle: Klucel (hydroxypropylcellulose) (HPC)): 83 % of control

Structure (SMILES): CCNC(=O)[B-][N+](C)(C)C
- T/C (dose: 100.0 mg/kg/injection, schedule: Q04DX003 (sc), vehicle: Klucel (hydroxypropylcellulose) (HPC)): 115 % of control
- T/C (dose: 200.0 mg/kg/injection, schedule: Q04DX003 (sc), vehicle: Klucel (hydroxypropylcellulose) (HPC)): 92 % of control
- T/C (dose: 400.0 mg/kg/injection, schedule: Q04DX003 (sc), vehicle: Klucel (hydroxypropylcellulose) (HPC)): 74 % of control

Structure (SMILES): O=P1(N(CCCl)CCCl)NCCCO1 (stereo not given)
- T/C (dose: 6.25 mg/kg/injection, schedule: Q01DX010 (ip), vehicle: saline): 82 % of control
- T/C [5]: 56 % of control
- T/C (dose: 12.5 mg/kg/injection, schedule: Q01DX010 (ip), vehicle: saline): -29 % of control
- T/C (dose: 20.8 mg/kg/injection, schedule: Q04DX003 (ip), vehicle: saline): 8 % of control
- T/C (dose: 25.0 mg/kg/injection, schedule: Q01DX010 (ip), vehicle: saline): -83 % of control
- T/C (dose: 25.0 mg/kg/injection, schedule: Q01DX010 (sc), vehicle: saline): -65 % of control and -47 % of control
- T/C (dose: 41.66 mg/kg/injection, schedule: Q04DX003 (ip), vehicle: saline): -6 % of control
- T/C (dose: 41.66 mg/kg/injection, schedule: Q04DX003 (sc), vehicle: saline): -53 % of control
- T/C [6]: -93 % of control

Structure (SMILES): CCOC(=O)C(CC(C)C)NC(=O)C(N)Cc1ccc(N(CCCl)CCCl)cc1 (stereo not given)
- T/C (dose: 60.0 mg/kg/injection, schedule: Q04DX003 (sc), vehicle: water): -100 % of control

Structure (SMILES): C1CCC(NC2CCCCC2)CC1
- T/C (dose: 75.0 mg/kg/injection, schedule: Q04DX003 (ip), vehicle: saline): 119 % of control
- T/C (dose: 150.0 mg/kg/injection, schedule: Q04DX003 (ip), vehicle: saline): 174 % of control

Structure (SMILES): CC1(C)CC1(Br)Br
- T/C (dose: 25.0 mg/kg/injection, schedule: Q01DX010 (sc), vehicle: saline with Tween-80): 71 % of control
- T/C [3]: 118 % of control
- T/C [4]: 153 % of control

Structure (SMILES): CN=C(N)N/N=C(\C)c1ccc2oc3ccc(/C(C)=N/NC(N)=NC)cc3c2c1
- T/C (dose: 75.0 mg/kg/injection, schedule: Q04DX003 (sc), vehicle: saline with Tween-80): 72 % of control
- T/C [1]: 86 % of control
- T/C [7]: 80 % of control

Structure (SMILES): C(=N/NC1=NCCN1)/c1c2ccccc2c(/C=N\NC2=NCCN2)c2ccccc12
- T/C (dose: 75.0 mg/kg/injection, schedule: Q04DX003 (sc), vehicle: suspension in saline): 11 % of control and 25 % of control
- T/C (dose: 150.0 mg/kg/injection, schedule: Q04DX003 (sc), vehicle: suspension in saline): 17 % of control and 18 % of control

Structure (SMILES): O=c1n(CC2CO2)c(=O)n(CC2CO2)n1CC1CO1 (stereo not given)
- T/C (dose: 9.38 mg/kg/injection, schedule: Q04DX003 (sc), vehicle: saline): 57 % of control
- T/C (dose: 18.7 mg/kg/injection, schedule: Q04DX003 (sc), vehicle: saline): 4 % of control
- T/C (dose: 18.75 mg/kg/injection, schedule: Q04DX003 (sc), vehicle: saline): 2 % of control
- T/C (dose: 29.0 mg/kg/injection, schedule: Q04DX003 (sc), vehicle: saline): -11 % of control
- T/C (dose: 37.5 mg/kg/injection, schedule: Q04DX003 (sc), vehicle: saline): -83 % of control and -73 % of control

Structure (SMILES): OCC1OC(n2cnc3c(Cl)ncnc32)C(O)C1O (stereo not given)
- T/C (dose: 300.0 mg/kg/injection, schedule: Q04DX003 (sc), vehicle: saline): 74 % of control
- T/C (dose: 600.0 mg/kg/injection, schedule: Q04DX003 (sc), vehicle: saline): 84 % of control
- T/C (dose: 1200.0 mg/kg/injection, schedule: Q04DX003 (sc), vehicle: saline): 80 % of control

Structure (SMILES): Cc1nc(C(Cl)(Cl)Cl)[nH]c(=O)c1SCCO
- T/C (dose: 150.0 mg/kg/injection, schedule: Q04DX003 (ip), vehicle: distilled water + alcohol): 162 % of control
- T/C (dose: 300.0 mg/kg/injection, schedule: Q04DX003 (ip), vehicle: distilled water + alcohol): 195 % of control
- T/C (dose: 600.0 mg/kg/injection, schedule: Q04DX003 (ip), vehicle: distilled water + alcohol): 50 % of control

Structure (SMILES): Cc1cc(NCCCN(C)C)c2ccc3c(ccc4c(NCCCN(C)C)cc(C)nc43)c2n1
- T/C (dose: 9.38 mg/kg/injection, schedule: Q04DX003 (sc), vehicle: saline with Tween-80): 77 % of control
- T/C (dose: 18.75 mg/kg/injection, schedule: Q04DX003 (sc), vehicle: saline with Tween-80): 65 % of control

Structure (SMILES): Cc1ccc2c(ccc(CC(=S)[S-])[n+]2C)c1
- T/C (dose: 50.0 mg/kg/injection, schedule: Q01DX010 (sc), vehicle: Klucel (hydroxypropylcellulose) (HPC)): 57 % of control
- T/C (dose: 100.0 mg/kg/injection, schedule: Q01DX010 (sc), vehicle: Klucel (hydroxypropylcellulose) (HPC)): 80 % of control
- T/C (dose: 200.0 mg/kg/injection, schedule: Q01DX010 (sc), vehicle: Klucel (hydroxypropylcellulose) (HPC)): 28 % of control
- T/C (dose: 400.0 mg/kg/injection, schedule: Q01DX010 (sc), vehicle: Klucel (hydroxypropylcellulose) (HPC)): 107 % of control

Structure (SMILES): Cc1ccc(S(=O)(=O)NC(=S)S)cc1
- T/C [4]: 98 % of control
- T/C (dose: 400.0 mg/kg/injection, schedule: Q01DX010 (sc), vehicle: saline with Tween-80): 93 % of control

Structure (SMILES): N#CCCSC(=S)C1CCCC1=N (stereo not given)
- T/C [7]: 76 % of control
- T/C (dose: 600.0 mg/kg/injection, schedule: Q04DX003 (sc), vehicle: saline with Tween-80): 87 % of control
- T/C [2]: 76 % of control
- T/C (dose: 2400.0 mg/kg/injection, schedule: Q04DX003 (sc), vehicle: saline with Tween-80): 85 % of control

Structure (SMILES): CSC1SCC2C(=O)N(C)C(C(C)C)C(=O)OCC(NC(=O)c3cnc4ccccc4n3)C(=O)NC(C)C(=O)N(C)C1C(=O)N(C)C(C(C)C)C(=O)OCC(NC(=O)c1cnc3ccccc3n1)C(=O)NC(C)C(=O)N2C (stereo not given)
- T/C (dose: 60.0 micrograms/kg/injection, schedule: Q01DX010 (sc), vehicle: saline): 109 % of control
- T/C (dose: 120.0 micrograms/kg/injection, schedule: Q01DX010 (sc), vehicle: saline): 87 % of control
- T/C (dose: 240.0 micrograms/kg/injection, schedule: Q01DX010 (sc), vehicle: saline): 40 % of control

Structure (SMILES): C1CCC2[N-]CC3CCCCC3[N-]CC3CCCCC3[N-]CC3CCCCC3[N-]CC2C1.[Cu] (stereo not given)
- T/C (dose: 3.13 mg/kg/injection, schedule: Q01DX010 (sc), vehicle: Klucel (hydroxypropylcellulose) (HPC)): 47 % of control
- T/C (dose: 6.25 mg/kg/injection, schedule: Q01DX010 (sc), vehicle: Klucel (hydroxypropylcellulose) (HPC)): 193 % of control
- T/C (dose: 12.5 mg/kg/injection, schedule: Q01DX010 (sc), vehicle: Klucel (hydroxypropylcellulose) (HPC)): 178 % of control
- T/C (dose: 25.0 mg/kg/injection, schedule: Q01DX010 (sc), vehicle: Klucel (hydroxypropylcellulose) (HPC)): 113 % of control

Structure (SMILES): C[n+]1c2cc(N)ccc2cc2ccc(N)cc21
- T/C (dose: 1.56 mg/kg/injection, schedule: Q01DX010 (sc), vehicle: saline): 79 % of control
- T/C (dose: 3.13 mg/kg/injection, schedule: Q01DX010 (sc), vehicle: saline): 66 % of control
- T/C [5]: 100 % of control

Structure (SMILES): CCN(CC)CC[n+]1ccc2c(C)c3[nH]c4ccc(O)cc4c3c(C)c2c1
- T/C (dose: 12.5 mg/kg/injection, schedule: Q04DX003 (sc), vehicle: suspension in saline): 82 % of control
- T/C (dose: 25.0 mg/kg/injection, schedule: Q04DX003 (sc), vehicle: suspension in saline): 77 % of control

Structure (SMILES): C=CS(=O)(=O)c1ccccc1
- T/C [6]: 91 % of control
- T/C (dose: 100.0 mg/kg/injection, schedule: Q01DX010 (sc), vehicle: saline): 81 % of control

Source: PubChem BioAssay AID296 (DTP/NCI, 2004)
